# Measured values published in patent US20090137652A1, “METHODS FOR NEUROPROTECTION” (priority 2005, published 2009).
# System: rats subjected to li-pilo SE
# Experiment: Quantification of cell densities 14 days after lithium-pilocarpine SE (Example 2)
# Format: in vivo, rat
# Conditions: 14 days after SE
# Method: All rats received lithium chloride (3 meq/kg, i.p., Sigma, St Louis, Mo., U.S.A.) and about 20 h later, all animals received also methylscopolamine bromide (1 mg/kg, s.c., Sigma) that was administered to limit the peripheral effects of the convulsant. SE was induced by injecting pilocarpine hydrochloride (25 mg/kg, s.c., Sigma) 30 min after methylscopolamine. The effects of increasing doses of TC (RWJ) were studied in 5 groups of rats. […] The control group received vehicle instead of pilocarpine and TC.
# At the moment, neuronal counting is still in progress in the second group of animals studied for epileptogenesis and long-term counting and the data concerning that part of the study will not be included in the present report. For neuronal counting, animals were deeply anesthetized with […] pentobarbital (Dolethal®, Vetoquinol, Lure, France). Brains were then removed and frozen. Serial 20 μm slices were cut in a cryostat, air-dried during several days before thionine staining. […] The grid of counting was placed on a well defined area of the cerebral structure of interest and counting was carried out with a microscopic enlargement of 200- or 400-fold defined for each single cerebral structure. Cell counts were performed twice on each side of three adjacent sections for each region by a single observer unaware of the animal's treatment. The number of cells obtained in the 12 counted fields in each cerebral structure was averaged. This procedure was used to minimize the potential errors that could result from double counting leading to overestimation of cell numbers. […] Counts involved only neurons with cell bodies larger than 10 μm. Cells with small cell bodies were considered as glial cells and were not counted.
# For neuronal damage and epileptogenesis, statistical analysis between groups was performed by means of a one-way analysis of variance followed by a post-hoc Dunnett or Fisher test using the Statistica software.
smiles,measurement,setting,value
NC(=O)OC[C@@H](O)c1ccccc1Cl [Formula 7],"number of neuronal cell bodies, Hippocampus, Hilus","pilo-TC60 (60 mg/kg), n = 11",32.8 ± 3.3
same,"number of neuronal cell bodies, Thalamus, Central medial","pilo-TC60 (60 mg/kg), n = 11",83.7 ± 9.6
same,"number of neuronal cell bodies, Thalamus, Dorsolateral, medial, dorsal","pilo-TC60 (60 mg/kg), n = 11",77.5 ± 3.9**°°
same,"number of neuronal cell bodies, Thalamus, Dorsolateral, ventral lateral","pilo-TC60 (60 mg/kg), n = 11",56.7 ± 8.7
same,"number of neuronal cell bodies, Thalamus, Mediodorsal central","pilo-TC60 (60 mg/kg), n = 11",24.1 ± 1
same,"number of neuronal cell bodies, Thalamus, Mediodorsal lateral","pilo-TC60 (60 mg/kg), n = 11",18.9 ± 0.6
same,"number of neuronal cell bodies, Thalamus, Mediodorsal medial","pilo-TC60 (60 mg/kg), n = 11",19.1 ± 2.6
same,"number of neuronal cell bodies, Amygdala, Basolateral","pilo-TC90 (90 mg/kg), n = 10",40.7 ± 1.6°°
same,"number of neuronal cell bodies, Amygdala, Medial, dorsal anterior","pilo-TC90 (90 mg/kg), n = 10",72.2 ± 5.7°°
same,"number of neuronal cell bodies, Amygdala, Medial, ventral posterior","pilo-TC90 (90 mg/kg), n = 10",30.7 ± 3.7°°
same,"number of neuronal cell bodies, Cerebral cortex, Entorhinal, layer II, dorsal","pilo-TC90 (90 mg/kg), n = 10",26.3 ± 0.9
same,"number of neuronal cell bodies, Cerebral cortex, Entorhinal, layer II, ventral","pilo-TC90 (90 mg/kg), n = 10",25.4 ± 1.1°
same,"number of neuronal cell bodies, Cerebral cortex, Entorhinal, layer III/IV, dorsal","pilo-TC90 (90 mg/kg), n = 10",26.7 ± 0.8
same,"number of neuronal cell bodies, Cerebral cortex, Entorhinal, layer III/IV, ventral","pilo-TC90 (90 mg/kg), n = 10",23.7 ± 1.5°°
same,"number of neuronal cell bodies, Cerebral cortex, Piriform, layer II, dorsal","pilo-TC90 (90 mg/kg), n = 10",32.4 ± 1.1°°
same,"number of neuronal cell bodies, Cerebral cortex, Piriform, layer II, ventral","pilo-TC90 (90 mg/kg), n = 10",18.4 ± 4.0°°
same,"number of neuronal cell bodies, Cerebral cortex, Piriform, layer III","pilo-TC90 (90 mg/kg), n = 10",9 ± 3.0°°
same,"number of neuronal cell bodies, Hippocampus, CA1 area","pilo-TC90 (90 mg/kg), n = 10",47.7 ± 6.6*°
same,"number of neuronal cell bodies, Hippocampus, CA3 area","pilo-TC90 (90 mg/kg), n = 10",35.1 ± 2.9
same,"number of neuronal cell bodies, Hippocampus, Hilus","pilo-TC90 (90 mg/kg), n = 10",37.5 ± 3.1
same,"number of neuronal cell bodies, Thalamus, Central medial","pilo-TC90 (90 mg/kg), n = 10",88.2 ± 8.5
same,"number of neuronal cell bodies, Thalamus, Dorsolateral, medial, dorsal","pilo-TC90 (90 mg/kg), n = 10",79.4 ± 3.1**°°
same,"number of neuronal cell bodies, Thalamus, Dorsolateral, ventral lateral","pilo-TC90 (90 mg/kg), n = 10",71.8 ± 5.3°°*
same,"number of neuronal cell bodies, Thalamus, Mediodorsal central","pilo-TC90 (90 mg/kg), n = 10",27.4 ± 1.5
same,"number of neuronal cell bodies, Thalamus, Mediodorsal lateral","pilo-TC90 (90 mg/kg), n = 10",22 ± 1.2*°
same,"number of neuronal cell bodies, Thalamus, Mediodorsal medial","pilo-TC90 (90 mg/kg), n = 10",23.1 ± 2.8°°
same,"number of neuronal cell bodies, Amygdala, Basolateral","pilo-TC120 (120 mg/kg), n = 8",42.7 ± 1.3°°
same,"number of neuronal cell bodies, Amygdala, Medial, dorsal anterior","pilo-TC120 (120 mg/kg), n = 8",80.2 ± 2.6°°
same,"number of neuronal cell bodies, Amygdala, Medial, ventral posterior","pilo-TC120 (120 mg/kg), n = 8",34.7 ± 1.7°°
same,"number of neuronal cell bodies, Cerebral cortex, Entorhinal, layer II, dorsal","pilo-TC120 (120 mg/kg), n = 8",27.3 ± 0.5°°
same,"number of neuronal cell bodies, Cerebral cortex, Entorhinal, layer II, ventral","pilo-TC120 (120 mg/kg), n = 8",25.1 ± 0.6
same,"number of neuronal cell bodies, Cerebral cortex, Entorhinal, layer III/IV, dorsal","pilo-TC120 (120 mg/kg), n = 8",26.4 ± 0.7°°
same,"number of neuronal cell bodies, Cerebral cortex, Entorhinal, layer III/IV, ventral","pilo-TC120 (120 mg/kg), n = 8",24.5 ± 1.4°°
same,"number of neuronal cell bodies, Cerebral cortex, Piriform, layer II, dorsal","pilo-TC120 (120 mg/kg), n = 8",35.2 ± 1.1°°
same,"number of neuronal cell bodies, Cerebral cortex, Piriform, layer II, ventral","pilo-TC120 (120 mg/kg), n = 8",30.5 ± 1.3°°
same,"number of neuronal cell bodies, Cerebral cortex, Piriform, layer III","pilo-TC120 (120 mg/kg), n = 8",15 ± 2.2°°
same,"number of neuronal cell bodies, Hippocampus, CA1 area","pilo-TC120 (120 mg/kg), n = 8",65.5 ± 2.9°°
same,"number of neuronal cell bodies, Hippocampus, CA3 area","pilo-TC120 (120 mg/kg), n = 8",39.8 ± 1.5
same,"number of neuronal cell bodies, Hippocampus, Hilus","pilo-TC120 (120 mg/kg), n = 8",44.8 ± 2.9
same,"number of neuronal cell bodies, Thalamus, Central medial","pilo-TC120 (120 mg/kg), n = 8",108.2 ± 6.6°
same,"number of neuronal cell bodies, Thalamus, Dorsolateral, medial, dorsal","pilo-TC120 (120 mg/kg), n = 8",89.8 ± 3.7*°
same,"number of neuronal cell bodies, Thalamus, Dorsolateral, ventral lateral","pilo-TC120 (120 mg/kg), n = 8",79.0 ± 4.7°°
same,"number of neuronal cell bodies, Thalamus, Mediodorsal central","pilo-TC120 (120 mg/kg), n = 8",29.9 ± 1.7°
same,"number of neuronal cell bodies, Thalamus, Mediodorsal lateral","pilo-TC120 (120 mg/kg), n = 8",24.4 ± 1.1°°
same,"number of neuronal cell bodies, Thalamus, Mediodorsal medial","pilo-TC120 (120 mg/kg), n = 8",28.6 ± 0.8°°
